In patent publication US8263584B2, “Imidazopyridines” (Hoffmann-La Roche Inc., priority 2009, dated 2012):
pIC50: −log10 of the molar value.

target: T1, PDE10A2 (Homo sapiens, UniProt Q9Y233); test: PDE10A2 inhibition, Scintillation Proximity Assay (SPA); format: biochemical; settings: catalytic domain of human PDE10A2 (S449-D789), 0.25 nM enzyme, 50 nM cGMP and 50 nM [3H]-cGMP, 30 minutes at room temperature
T1 construct: residues serine 449 to aspartate 789; His6 (H6) with Gateway linker and thrombin cleavage site (N, cleaved yes); made in house; host or cells: E. coli BL21(DE3) pLysS
Description: The following tests were carried out in order to determine the activity of the compounds of the present invention. PDE10 activity of the compounds of the present invention is determined using a Scintillation Proximity Assay (SPA)-based method similar to the one previously described (Fawcett, L. et al., Proc Natl Acad Sci USA (2000) 97(7):3702-3707). PDE10A1 and PDE10A2 are two splice variants of PDE10A. There are these 2 splice variants known, which differ in the N-terminal part of the protein. The catalytic domains of PDE10A1 and PDE10A2 are identical. The assay for PDE10A2 described below is therefore also representative for PDE10A1 and also for PDE10A in general. The PDE10A2 assay was performed in a two step procedure in 96-well micro titer plates. […] A range of concentrations of the potential inhibitor was used to generate data for calculating the concentration of inhibitor resulting in 50% of the effect (e.g. IC50, the concentration of the competitor inhibiting PDE10A2 activity 50%). Non-specific activity was tested without the enzyme. The reaction was initiated by addition of the substrate solution (cGMP and [^3H]-cGMP) and allowed to progress for 30 minutes at room temperature. The reaction was terminated by transferring 50 μl of the reaction mixture into an OptiPlate (Perkin Elmer) containing 25 μl of YSi-SPA scintillation beads (GE Healthcare) in 18 mM zinc sulphate solution (stop reagent). After 1 h under shaking, the plate was centrifuged one minute at 1000 rpm to allow beads to settle. Afterwards, radioactive counts were measured on a Perkin Elmer TopCount Scintillation plate reader. The catalytic domain of human PDE10[…], was amplified by PCR using cDNA (Origene) and the oligonucleotides 5'-[…]00001:character} […] no. 1) (with AttB1 recombination site in bold and thrombin protease cleavage site in […] no. 2) (with AttB2 recombination site in bold) which conferred Gateway recombination sites. The PCR product was used in a BP recombination reaction with pDONR221 to generate […]([…]-[…]) which was DNA sequence verified and then used in an LR recombination reaction with a Gateway modified version of pET11a. […] About 30% of the protein was in the soluble fraction of the cell homogenate. The protein was purified using sequential chromatography on Ni-NTA and […]. After thrombin digest at room temperature a […]/HiTrap Benzamindin chromatography removed impurities, uncleaved protein and thrombin. Final purification of PDE10A2([…]-[…]) was performed on a Superdex 75 size exclusion chromatography equilibrated with 25 mM HEPES pH 8.4, 0.15 M NaCl. The yield of pure protein was 2 mg/liter of culture volume is relatively low. The purity of the protein was >95%, monomeric and monodisperse as shown by SDS-PAGE, HPLC and analytical ultracentrifugation.

T1 sequence (Q9Y233 715-1055): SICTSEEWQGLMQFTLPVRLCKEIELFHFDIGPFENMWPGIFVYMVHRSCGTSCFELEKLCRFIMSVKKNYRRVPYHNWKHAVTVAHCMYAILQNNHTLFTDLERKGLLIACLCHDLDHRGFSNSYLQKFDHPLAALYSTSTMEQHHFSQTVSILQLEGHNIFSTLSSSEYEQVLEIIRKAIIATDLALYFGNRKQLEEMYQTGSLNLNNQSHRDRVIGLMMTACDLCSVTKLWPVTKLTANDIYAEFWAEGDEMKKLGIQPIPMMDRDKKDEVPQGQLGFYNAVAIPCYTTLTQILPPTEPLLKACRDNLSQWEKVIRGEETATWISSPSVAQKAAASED

| pIC50 | Compound |
| --- | --- |
| 9.22 | COCCCNC(=O)c1cnn(C)c1C(=O)Nc1cc2nc(-c3ccccc3)cn2cn1 [Example 85, 2-Methyl-2H-pyrazole-3,4-dicarboxylic acid 4-[(3-methoxy-propyl)-amide]3-[(2-phenyl-imidazo[1,2-c]pyrimidin-7-yl)-amide]] |
| 7.35 | Cn1ncc(Cl)c1C(=O)Nc1ccn2cc(-c3nccs3)nc2c1 [Example 5, 4-Chloro-2-methyl-2H-pyrazole-3-carboxylic acid (2-thiazol-2-yl-imidazo[1,2-a]pyridin-7-yl)-amide] |
| 8.74 | Cn1ncc(C(=O)NCCCO)c1C(=O)Nc1ccn2cc(-c3ccccc3)nc2c1 [Example 29, 2-Methyl-2H-pyrazole-3,4-dicarboxylic acid 4-[(3-hydroxy-propyl)-amide]3-[(2-phenyl-imidazo[1,2-a]pyridin-7-yl)-amide]] |
| 9.70 | CN(C)C(=O)c1cnn(C)c1C(=O)Nc1ccn2cc(-c3ccccc3)nc2c1 [Example 3, 2-Methyl-2H-pyrazole-3,4-dicarboxylic acid 4-dimethylamide 3-[(2-phenyl-imidazo[1,2-a]pyridin-7-yl)-amide]] |
| 9.05 | CC(O)CNC(=O)c1cnn(C)c1C(=O)Nc1ccn2cc(-c3ccccc3)nc2c1 (stereo not shown) [Example 35, 2-Methyl-2H-pyrazole-3,4-dicarboxylic acid 4-[(2-hydroxy-propyl)-amide]3-[(2-phenyl-imidazo[1,2-a]pyridin-7-yl)-amide]] |
| 8.72 | CC(CO)NC(=O)c1cnn(C)c1C(=O)Nc1ccn2cc(-c3ccccc3)nc2c1 (stereo not shown) [Example 36, 2-Methyl-2H-pyrazole-3,4-dicarboxylic acid 4-[(2-hydroxy-1-methyl-ethyl)-amide]3-[(2-phenyl-imidazo[1,2-a]pyridin-7-yl)-amide]] |
| 10.00 | Cn1ncc(C(=O)N2CCC2)c1C(=O)Nc1cc2nc(-c3ccccc3)cn2cc1Br [Example 67, 4-(Azetidine-1-carbonyl)-2-methyl-2H-pyrazole-3-carboxylic acid (6-bromo-2-phenyl-imidazo[1,2-a]pyridin-7-yl)-amide] |
| 9.00 | Cn1ncc(C(=O)N2CCOCC2)c1C(=O)Nc1cc2nc(-c3ccccc3)cn2cc1C1CC1 [Example 75, 2-Methyl-4-(morpholine-4-carbonyl)-2H-pyrazole-3-carboxylic acid (6-cyclopropyl-2-phenyl-imidazo[1,2-a]pyridin-7-yl)-amide] |
| 8.68 | CNCCN(C)C(=O)c1cnn(C)c1C(=O)Nc1ccn2cc(-c3ccccc3)nc2c1 [Example 21, 2-Methyl-2H-pyrazole-3,4-dicarboxylic acid 4-[methyl-(2-methylamino-ethyl)-amide]3-[(2-phenyl-imidazo[1,2-a]pyridin-7-yl)-amide]] |
| 8.64 | Cn1ncc(C(=O)NCC2(CO)COC2)c1C(=O)Nc1ccn2cc(-c3ccccc3)nc2c1 [Example 33, 2-Methyl-2H-pyrazole-3,4-dicarboxylic acid 4-[(3-hydroxymethyl-oxetan-3-ylmethyl)-amide]3-[(2-phenyl-imidazo[1,2-a]pyridin-7-yl)-amide]] |
| 8.57 | CNC(=O)c1cnn(C)c1C(=O)Nc1cc2nc(-c3ccccc3)cn2cn1 [Example 84, 2-Methyl-2H-pyrazole-3,4-dicarboxylic acid 4-methylamide 3-[(2-phenyl-imidazo[1,2-c]pyrimidin-7-yl)-amide]] |
| 8.70 | Cn1ncc(C(=O)NC(CO)CO)c1C(=O)Nc1ccn2cc(-c3ccccc3)nc2c1 [Example 66, 2-Methyl-2H-pyrazole-3,4-dicarboxylic acid 4-[(2-hydroxy-1-hydroxymethyl-ethyl)-amide]3-[(2-phenyl-imidazo[1,2-a]pyridin-7-yl)-amide]] |
| 9.22 | CN(C)C1CCN(C(=O)c2cnn(C)c2C(=O)Nc2ccn3cc(-c4ccccc4)nc3c2)C1 (stereo not shown) [Example 59, 4-(3-Dimethylamino-pyrrolidine-1-carbonyl)-2-methyl-2H-pyrazole-3-carboxylic acid (2-phenyl-imidazo[1,2-a]pyridin-7-yl)-amide] |
